Data: patent publication US12195427B2, “MASP-2 inhibitors and methods of use” (priority 2018, dated 2025)
Structures can show the parent of a compound that is named as a salt.

Biological target: MASP-2 CCP2-SP (Homo sapiens (Human), UniProt O00187)
Experiment: MASP-2 co-crystallization, X-ray crystallography and structure analysis (H-bonds, van der Waals contacts);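 as to Ligand-pharmacophore element distance, pharmacophore element C2: distance from averaged pharmacophore element to bound ligand; missing value means element absent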;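 as to Ligand-pharmacophore element distance, pharmacophore element C3: distance from averaged pharmacophore element to bound ligand; missing value means element absent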;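 as to Ligand-pharmacophore element distance, pharmacophore element C4: distance from averaged pharmacophore element to bound ligand; missing value means element absent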;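 as to Ligand-pharmacophore element distance, pharmacophore element C5: distance from averaged pharmacophore element to bound ligand; missing value means element absent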
Set-up: van der Waals contact distance, MASP-2 HIS 483 atom CD2 / van der Waals contact distance, MASP-2 HIS 483 atom NE2 / van der Waals contact distance, SER 654 C to compound atom / van der Waals contact distance, SER 654 O to compound atom / van der Waals contact distance, TRP 655 C to compound atom / van der Waals contact distance, MASP-2 GLY 528 atom CA / van der Waals contact distance TRP 655 atom CZ3 / van der Waals contact distance TRP 655 atom N / van der Waals contact distance TRP 655 atom CE3 / van der Waals contact distance GLY 656 atom C / van der Waals contact distance GLY 656 atom CA / van der Waals contact distance GLY 656 atom O / van der Waals contact distance, MASP-2 TYR 607 atom CD1 / van der Waals contact distance, MASP-2 PRO 606 atom O / d(C3,CA1) / d(CA1,N1)2 / d(H4,O1) / d(H4,O2) / d(O1,O2) / d(CA1,O2) / d(CA6,O1) / d(CA6,O2) / d(CA1,C5) / d(O2,H3) / d(N2,C2) / d(CA5,N2) / d(N2,C4) / d(N2,C6) / d(N2,CA3) / d(N2,O3) / d(O4,H2): unit not given beside the values
Conditions: for Ligand-pharmacophore element distance, pharmacophore element C2 / Ligand-pharmacophore element distance, pharmacophore element C3 / Ligand-pharmacophore element distance, pharmacophore element C4 / Ligand-pharmacophore element distance, pharmacophore element C5 / Ligand-pharmacophore element distance, pharmacophore element C6 / Ligand-pharmacophore element distance, pharmacophore element C7 / Ligand-pharmacophore element distance, pharmacophore element CA1 / Ligand-pharmacophore element distance, pharmacophore element CA2 / Ligand-pharmacophore element distance, pharmacophore element CA3 / Ligand-pharmacophore element distance, pharmacophore element CA4 / Ligand-pharmacophore element distance, pharmacophore element CA5 / Ligand-pharmacophore element distance, pharmacophore element CA6: Table A4-1
How it was run: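 First, CCP2-SP constructs with or without a 6His tag are produced in E. coli. Crystals are then soaked once or twice with inhibitor, cryoprotected in 20% glycerol or frozen directly, and diffracted at synchrotron beamlines. Phasing uses molecular replacement with parts of 1Q3X.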

[1] = Table A5-1 pharmacophore: distance between elements, S2/S1 region
[2] = Table A5-2 pharmacophore distance, S3/S4 region
[3] = Table A7-1, between pharmacophore elements of the bound compound
[4] = Table A7-2, between pharmacophore elements of the bound compound
[5] = Table A8-6, nearest protein atom in cell to the left

MASP-2 CCP2-SP, sequence (O00187 445-686): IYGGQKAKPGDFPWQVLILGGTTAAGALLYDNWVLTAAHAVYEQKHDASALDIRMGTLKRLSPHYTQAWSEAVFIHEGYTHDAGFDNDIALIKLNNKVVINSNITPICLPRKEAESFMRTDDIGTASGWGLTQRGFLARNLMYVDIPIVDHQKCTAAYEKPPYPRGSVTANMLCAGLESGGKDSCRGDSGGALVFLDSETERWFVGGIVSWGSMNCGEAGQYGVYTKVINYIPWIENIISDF
MASP-2 CCP2-SP, sequence (O00187 364-432 partner): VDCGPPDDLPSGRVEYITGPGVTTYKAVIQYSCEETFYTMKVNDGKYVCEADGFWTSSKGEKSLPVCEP

C[C@H](NC(=O)[C@H]1Cc2c([nH]c3ccccc23)CN1)C(=O)NCc1ccc(C(=N)N)cc1.Cl.Cl [1097_2]
Ligand-pharmacophore element distance, pharmacophore element C2: 0.72 | Ligand-pharmacophore element distance, pharmacophore element C3: 0 | Ligand-pharmacophore element distance, pharmacophore element C4: 0 | Ligand-pharmacophore element distance, pharmacophore element C5: 0 | Ligand-pharmacophore element distance, pharmacophore element C6: 0 | Ligand-pharmacophore element distance, pharmacophore element C7: 0 | Ligand-pharmacophore element distance, pharmacophore element CA1: 0.32 | Ligand-pharmacophore element distance, pharmacophore element CA2: 0 | Ligand-pharmacophore element distance, pharmacophore element CA3: 0 | Ligand-pharmacophore element distance, pharmacophore element CA4: 0 | Ligand-pharmacophore element distance, pharmacophore element CA5: 1.1 | Ligand-pharmacophore element distance, pharmacophore element CA6: 0 | d(CA1,N1) [1]: 3.52 | d(CA1,O1) [1]: 4.35 | d(CA1,O2) [1]: 4.09 | d(H4,O1) [1]: 4.74 | d(H4,O2) [1]: 4.28 | d(O1,O2) [1]: 3.33 | d(CA5,N2) [2]: 4.50 | d(N2,C2) [2]: 1.42 | d(O2,H3) [2]: 4.29 | d(O2,N2) [2]: 2.81 | a(CA1, O1, O2) (Table A6-1 pharmacophore angle): 109.11 | a(O1, O2, H4) (Table A6-1 pharmacophore angle): 137.06 | A(N1, CA1, O1) a) (Table A6-1 pharmacophore angle, all compounds with protonatable center N1 except Methyl-amino-pyridine): 163.92 | a(O1, O2, H3) (Table A6-2 pharmacophore angle): 153.30 | a(O1, O2, N2) (Table A6-2 pharmacophore angle): 137.12 | a(O2, N2, C2) (Table A6-2 pharmacophore angle): 128.45 | Pharmacophore torsion angle a(H4, O1, O2, H3) [3]: 91.00 | Pharmacophore torsion angle a(H4, O1, O2, N2) [3]: 129.42 | Pharmacophore torsion angle a(N1, CA1, O2, H4) [3]: −142.69 | Pharmacophore torsion angle a(O1, H4, O2, CA1) [3]: −71.28 | Pharmacophore torsion angle a(O1, O2, N2, C2) [3]: 125.27 | Pharmacophore torsion angle a(O1, O2, N2, CA5) [4]: 137.08 | Pharmacophore protein distance to MET_658 (first MET_658 column) (Table A8-6, 6th residue column, nearest protein atom in cell to the left): 2.55 | Pharmacophore protein distance to MET_658 (second MET_658 column) (Table A8-6, 9th residue column, nearest protein atom in cell to the left): 3.13 | Pharmacophore protein distance to GLY_528 [5]: 3.52 | Pharmacophore protein distance to PHE_529 [5]: 3.02 | Pharmacophore protein distance to PRO_608 [5]: 3.56 | Pharmacophore protein distance to SER_611 [5]: 3.29 | Pharmacophore protein distance to TRP_655 (Table A8-6, pharmacophore elements C6, CA3, O3, H1, nearest protein atom in cell to the left): 3.09

C[C@H](NC(=O)[C@H]1C[C@H](Cc2ccccc2)CN1)C(=O)NCc1cc(Cl)ccc1-n1cnnn1 [compound 1371, (2R,4S)-4-Benzyl-N—((S)-1-((5-chloro-2-(1H-tetrazol-1-yl)benzyl)amino)-1-oxopropan-2-yl)pyrrolidine-2-carboxamide Hydrochloride]
H-bond distance to MASP-2 GLY 656 atom N (Table A1 (H-Bonds), GLY 656 N): 3.18 | H-bond distance to MASP-2 GLY 656 atom O (Table A1 (H-Bonds), GLY 656 O): 2.75 | H-bond distance to MASP-2 SER 654 atom O (Table A1 (H-Bonds), SER 654 O): 2.86 | H-bond distance to MASP-2 SER 657 atom O (Table A1 (H-Bonds), SER 657 O): 2.96 | van der Waals contact distance, MASP-2 HIS 483 atom CD2 (Table A2-1): 3.55 | van der Waals contact distance, MASP-2 HIS 483 atom NE2 (Table A2-1): 3.61 | van der Waals contact distance, MASP-2 GLY 528 atom CA (Table A2-2): 3.8 | van der Waals contact distance, MASP-2 PHE 529 atom CD2 (Table A2-3): 3.86 | van der Waals contact distance, MASP-2 PHE 529 atom CE2 (Table A2-3): 3.89 | van der Waals contact distance, MASP-2 amino acid atom to compound atom (Table A2-9 second part, ARG 630, AA atoms N, NE, NH1): 3.44 | van der Waals contact distance, SER 654 C to compound atom (Table A2-11): 3.9 | van der Waals contact distance GLY 656 atom C (Table A2-13, MASP-2 GLY 656 C): 3.84 | van der Waals contact distance, MASP-2 amino acid atom to compound atom (Table A2 section before Table A2-8): 3.76 | Ligand-pharmacophore element distance, pharmacophore element C2: 0 | Ligand-pharmacophore element distance, pharmacophore element C3: 0 | Ligand-pharmacophore element distance, pharmacophore element C4: 0 | Ligand-pharmacophore element distance, pharmacophore element C5: 0.48 | Ligand-pharmacophore element distance, pharmacophore element C6: 0 | Ligand-pharmacophore element distance, pharmacophore element C7: 0 | Ligand-pharmacophore element distance, pharmacophore element CA1: 0.58 | Ligand-pharmacophore element distance, pharmacophore element CA2: 0.46 | Ligand-pharmacophore element distance, pharmacophore element CA3: 0 | Ligand-pharmacophore element distance, pharmacophore element CA4: 0 | Ligand-pharmacophore element distance, pharmacophore element CA5: 0 | Ligand-pharmacophore element distance, pharmacophore element CA6: 0 | d(CA1,O1) [1]: 3.46 | d(CA1,O2) [1]: 3.72 | d(H4,O1) [1]: 3.13 | d(H4,O2) [1]: 3.66 | d(O1,O2) [1]: 3.25 | d(N2,CA2) [2]: 5.90 | d(O2,H3) [2]: 1.96 | d(O2,N2) [2]: 2.79 | a(CA1, O1, O2) (Table A6-1 pharmacophore angle): 121.03 | a(O1, O2, H4) (Table A6-1 pharmacophore angle): 123.31 | a(O1, O2, H3) (Table A6-2 pharmacophore angle): 136.64 | a(O1, O2, N2) (Table A6-2 pharmacophore angle): 146.93 | a(O2, N2, CA2) (Table A6-2 pharmacophore angle): 155.86 | Pharmacophore torsion angle a(H4, O1, O2, H3) [3]: −165.12 | Pharmacophore torsion angle a(H4, O1, O2, N2) [3]: −174.11 | Pharmacophore torsion angle a(O1, H4, O2, CA1) [3]: −68.15 | Pharmacophore torsion angle a(O1, O2, N2, CA2) [4]: 136.54
